Experiments:
Aβ1–42 = system: Aβ1–42; design: method as in PMID 31520649; details: pair of enantiomeric compounds from corn silk; cited from earlier work
HeLa cells = system: HeLa cells; design: method as in PMID 21747753, PMID 21673896, PMID 31671793; details: obtained from marine-derived fungi; cited from earlier work
tyrosinase = tyrosinase (Agaricus bisporus, UniProt C7FF04); assay: Enzyme kinetic analysis (V-S curve, Lineweaver–Burk plot, secondary replot); type: biochemical
Protocol: The inhibition type was measured by the reaction rate–substrate concentration curve and the Lineweaver–Burk plot. L-tyrosine solutions were diluted to different concentrations (5 mM, 7.5 mM, 9 mM, 12 mM, 15 mM) as the substate. The inhibition constant was determined by the second plot of the y-intercept versus the concentration of the inhibitor. The values of Kis were calculated from the following formula: y-intercept=1/Vm1+[I]/Kis
The inhibition constant Kis was obtained from the plot of the y-intercept versus the concentration of 10, which was calculated to be 0.04 mM (Figure 5C).

Sequence of tyrosinase (C7FF04 1-392): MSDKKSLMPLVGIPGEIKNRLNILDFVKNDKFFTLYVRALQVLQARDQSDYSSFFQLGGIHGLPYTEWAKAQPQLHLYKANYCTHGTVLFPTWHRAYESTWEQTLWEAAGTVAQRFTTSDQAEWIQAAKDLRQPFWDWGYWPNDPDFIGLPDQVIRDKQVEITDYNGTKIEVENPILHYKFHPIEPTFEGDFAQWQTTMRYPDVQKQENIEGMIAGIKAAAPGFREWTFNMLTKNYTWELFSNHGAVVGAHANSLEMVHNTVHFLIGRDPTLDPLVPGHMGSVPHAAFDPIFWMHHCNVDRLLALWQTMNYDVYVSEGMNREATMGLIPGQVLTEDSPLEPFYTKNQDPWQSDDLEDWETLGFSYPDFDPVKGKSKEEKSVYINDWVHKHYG

| inhibition type on tyrosinase (tyrosinase; L-tyrosine 5–15 mM, Lineweaver–Burk plot) | change of Km and Vm with increasing inhibitor concentration (tyrosinase; ratio Km/Vm remained unchanged) | SMILES | anti-Aβ1–42 aggregation activity (Aβ1–42) | cytotoxic activity against HeLa cells (HeLa cells) |
| --- | --- | --- | --- | --- |
|  |  | COC(=O)CCCCCCC[C@H]1C=CC(=O)O1 [Compound 9, Cornilkone C] | weak |  |
| uncompetitive inhibitor | decreased | COC(=O)C(=O)c1c[nH]c2ccccc12 [Compound 10, (1H-indol-3-yl) oxoacetic acid methyl ester] |  | weak |
